By IC50 is commonly meant the concentration needed to halve the response being measured. As a reminder, the Ki is a dissociation constant, usually derived from enzyme kinetics or from competition with a known ligand.

In assay [1] the test system is JAK1-dependent STAT6 phosphorylation downstream of IL-13 stimulation in TF-1 human erythroleukemia cells. In words: cells. Particulars: TF-1, read-out: IL-13-pSTAT6 IC50.
Assay [2] deals with JAK1-dependent STAT6 phosphorylation downstream of IL-13 stimulation in BEAS-2B human bronchial epithelial cells. Briefly: cells. Particulars: read-out: IL13-pSTAT6 BEASB2B IC50.
Procedure: Inhibitor potency (EC50) was determined in cell-based assays designed to measure JAK1 dependent STAT phosphorylation.
Prior to use in the assays, TF-1 cells were starved of GM-CSF overnight in OptiMEM medium (Life Technologies, Grand Island, N.Y.) supplemented with 0.5% charcoal/dextran stripped fetal bovine serum (FBS), 0.1 mM non-essential amino acids (NEAA), and 1 mM sodium pyruvate. The assays were run in 384-well plates in serum-free OptiMEM medium using 300,000 cells per well. In a second assay approach, BEAS-2B human bronchial epithelial cells obtained from ATCC were plated at 100,000 cells per well of a 96-well plate one day prior to the experiment. The BEAS-2B assay was run in complete growth medium (bronchial epithelial basal medium plus bulletkit; Lonza; Basel, Switzerland).
Test compounds were serially diluted 1:2 in DMSO and then diluted 1:50 in medium just before use. Diluted compounds were added to the cells, for a final DMSO concentration of 0.2%, and incubated for 30 min (for the TF-1 assay) or 1 hr (for the BEAS-2B assay) at 37° C. Then, cells were stimulated with human recombinant cytokine at their respective EC90 concentrations, as previously determined for each individual lot. […] The resultant samples were frozen in the plates at −80° C. Compound mediated inhibition of STAT6 phosphorylation was measured in the cell lysates using MesoScale Discovery (MSD) technology (Gaithersburg, Md.).
The target of assay [3] is isolated recombinant JAK2 kinase domain (Homo sapiens (Human), UniProt O60674). In words: biochemical.
For assay [4], the system named is JAK1-dependent STAT6 phosphorylation downstream of IL-13 stimulation in TF-1 human erythroleukemia cells. The conditions noted are these: read-out: IL-13-pSTAT6 IC50, TF-1 cells.

Where two headings read alike, the source gives them in different places.

Chain of isolated recombinant JAK2 kinase domain (O60674 849-1124): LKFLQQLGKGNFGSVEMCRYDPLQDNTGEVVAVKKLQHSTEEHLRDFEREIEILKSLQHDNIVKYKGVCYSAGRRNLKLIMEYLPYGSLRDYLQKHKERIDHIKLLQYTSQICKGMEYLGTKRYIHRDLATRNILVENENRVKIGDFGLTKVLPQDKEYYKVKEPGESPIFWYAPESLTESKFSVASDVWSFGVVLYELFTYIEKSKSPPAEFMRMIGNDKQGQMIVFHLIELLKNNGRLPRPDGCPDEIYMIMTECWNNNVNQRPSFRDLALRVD

On to `CNC1CN(C(=O)c2ccc(Nc3nc4c(N5CCC(CO)(c6ccc(Cl)cc6)CC5)cccn4n3)cc2)C1` [Example 1-283, [4-[[8-[4-(4-chlorophenyl)-4-(hydroxymethyl)-1-piperidyl]-[1,2,4]triazolo[1,5-a]pyridin-2-yl]amino]phenyl]-[3-(methylamino)azetidin-1-yl]methanone], for which the IC50 turned out to be 15.5 nM in assay [1] and 31.3 nM in assay [2]. Moreover, the Ki in assay [3] turned out to be 0.15 nM. On to `CN1CCC(N(C)C(=O)c2ccc(Nc3nc4c(C5=CCN(C(=O)C6CCC(C#N)CC6)CC5)cccn4n3)cc2)CC1` (centres unmarked) [Example 2-285, 4-[[8-[1-(4-cyanocyclohexanecarbonyl)-3,6-dihydro-2H-pyridin-4-yl]-[1,2,4]triazolo[1,5-a]pyridin-2-yl]amino]-N-methyl-N-(1-methyl-4-piperidyl)benzamide], for which the IC50 in assay [4] was found to be 739 nM.

As to `CNC(=O)C1CN(C(C)C)CCN1C(=O)c1ccc(Nc2nc3c(C4=CCN(C(=O)CCC(F)(F)F)CC4)cccn3n2)cc1` (centres unmarked) [Example 2-327, 4-isopropyl-N-methyl-1-[4-[[8-[1-(4,4,4-trifluorobutanoyl)-3,6-dihydro-2H-pyridin-4-yl]-[1,2,4]triazolo[1,5-a]pyridin-2-yl]amino]benzoyl] piperazine-2-carboxamide], the IC50 in assay [4] was found to be 19.9 nM.
